Experiment: Spectroscopic measurements (absorption, emission, quantum yield, extinction coefficient)
Type: physicochemical
[1] = BDNCA library, extinction coefficient; in M-1 cm-1 (unit assumed)
[2] = BDNCA library, fluorescence emission
[3] = BDNCA library, difference emission minus absorption

SMILES	Qunt. Yield (BDNCA library)	Abs (BDNCA library, absorption)	ε [1]	Flu [2]	Flu-Abs [3]	Abs (absorption maximum, BDNCA library)	Flu-Abs (difference of emission and absorption maxima)	ε (extinction coefficient, BDNCA library; in M-1 cm-1 (unit assumed))	Flu (fluorescence emission maximum, BDNCA library)	Qunt. Yield (quantum yield, BDNCA library)
CC1=CC(/C=C/c2ccc(N(C)CCC#N)cc2)=[N+]2C1=C(c1ccc(NC(=O)CCl)cc1)c1cccn1[B-]2(F)F [BDNCA-3]	weak	605 nm	73,593	weak						
CC1=CC(/C=C/c2ccc(OCc3ccccc3)c(OCc3ccccc3)c2)=[N+]2C1=C(c1ccc(NC(=O)CCl)cc1)c1cccn1[B-]2(F)F [BDNCA-4]	0.18	570 nm	79,908	611	41					
CC1=CC(/C=C/c2c3ccccc3cc3ccccc23)=[N+]2C1=C(c1ccc(NC(=O)CCl)cc1)c1cccn1[B-]2(F)F [BDNCA-6]	weak	536 nm	41,465	weak						
COc1ccc(/C=C/C2=[N+]3C(=C(c4ccc(NC(=O)CCl)cc4)c4cccn4[B-]3(F)F)C(C)=C2)cc1OCc1ccccc1 [BDNCA-7]	0.19	570 nm	87,872	616	46					
CC1=CC(/C=C/c2ccc(-n3ccnc3)cc2)=[N+]2C1=C(c1ccc(NC(=O)CCl)cc1)c1cccn1[B-]2(F)F [BDNCA-8]	0.04	562 nm	29,108	582	20					
Cc1cccc(/C=C/c2cc(C)c3n2[B-](F)(F)[N+]2=CC=CC2=C3c2ccc(NC(=O)CCl)cc2)c1 [BDNCA-9]	0.10	556 nm	47,780	575	19					
CC1=CC(/C=C/c2ccc(Cl)cc2)=[N+]2C1=C(c1ccc(NC(=O)CCl)cc1)c1cccn1[B-]2(F)F [BDNCA-12]	0.10	557 nm	49,428	576	19					
CC1=CC(/C=C/c2ccc(N(c3ccccc3)c3ccccc3)cc2)=[N+]2C1=C(c1ccc(NC(=O)CCl)cc1)c1cccn1[B-]2(F)F [BDNCA-14]		599 nm	35,149							
CC1=CC(/C=C/c2ccc(C#N)cc2)=[N+]2C1=C(c1ccc(NC(=O)CCl)cc1)c1cccn1[B-]2(F)F [BDNCA-15]	0.13	560 nm	49,977	578	18					
CCCCN(CCCC)c1ccc(/C=C/C2=[N+]3C(=C(c4ccc(NC(=O)CCl)cc4)c4cccn4[B-]3(F)F)C(C)=C2)cc1 [BDNCA-17]	weak	627 nm	52,998	weak						
CC1=CC(/C=C/c2ccc(C(C)C)cc2)=[N+]2C1=C(c1ccc(NC(=O)CCl)cc1)c1cccn1[B-]2(F)F [BDNCA-19]	0.13	558 nm	61,236	580	22					
CC1=CC(/C=C/c2cccc(Oc3ccccc3)c2)=[N+]2C1=C(c1ccc(NC(=O)CCl)cc1)c1cccn1[B-]2(F)F [BDNCA-20]	0.11	556 nm	51,625	576	20					
CC1=CC(/C=C/c2cccc3ccccc23)=[N+]2C1=C(c1ccc(NC(=O)CCl)cc1)c1cccn1[B-]2(F)F [BDNCA-25]	0.09	566 nm	32,952	594	28					
CC1=CC(/C=C/c2ccccc2)=[N+]2C1=C(c1ccc(NC(=O)CCl)cc1)c1cccn1[B-]2(F)F [BDNCA-27]	0.11	554 nm	73,318	577	23					
COc1cc(/C=C/C2=[N+]3C(=C(c4ccc(NC(=O)CCl)cc4)c4cccn4[B-]3(F)F)C(C)=C2)cc(Cl)c1O [BDNCA-29]	0.01	567 nm	25,812	597	30					
COc1ccc(/C=C/c2cc(C)c3n2[B-](F)(F)[N+]2=CC=CC2=C3c2ccc(NC(=O)CCl)cc2)c2ccccc12 [BDNCA-32]	0.06	583 nm	27,735	649	66					
CC1=CC(/C=C/c2ccc(C)c3ccccc23)=[N+]2C1=C(c1ccc(NC(=O)CCl)cc1)c1cccn1[B-]2(F)F [BDNCA-36]	0.08	572 nm	30,755	610	38					
CC1=CC(/C=C/c2csc3ccccc23)=[N+]2C1=C(c1ccc(NC(=O)CCl)cc1)c1cccn1[B-]2(F)F [BDNCA-37]	0.14	567 nm	71,121	600	33					
CC(=O)Oc1ccc(/C=C/c2cc(C)c3n2[B-](F)(F)[N+]2=CC=CC2=C3c2ccc(NC(=O)CCl)cc2)cc1 [BDNCA-41]						565 nm	29	47,780	594	0.13

SMILES	Qunt. Yield (BDNCA library)	Abs (BDNCA library, absorption)	ε [1]	Flu [2]	Flu-Abs [3]	Abs (absorption maximum, BDNCA library)	Flu-Abs (difference of emission and absorption maxima)	ε (extinction coefficient, BDNCA library; in M-1 cm-1 (unit assumed))	Flu (fluorescence emission maximum, BDNCA library)	Qunt. Yield (quantum yield, BDNCA library)
COc1ccc(Oc2cccc(/C=C/C3=[N+]4C(=C(c5ccc(NC(=O)CCl)cc5)c5cccn5[B-]4(F)F)C(C)=C3)c2)cc1 [BDNCA-42]	0.08	556 nm	54,645	577	21					
COc1cc(C=CC=CC2=[N+]3C(=C(c4ccc(NC(=O)CCl)cc4)c4cccn4[B-]3(F)F)C(C)=C2)ccc1OC(C)=O [BDNCA-44]	weak	580 nm	12,632	weak						
CCCCCCOc1ccc(/C=C/C2=[N+]3C(=C(c4ccc(NC(=O)CCl)cc4)c4cccn4[B-]3(F)F)C(C)=C2)cc1 [BDNCA-45]	0.13	566 nm	82,929	598	32					
CCCCOc1ccc(/C=C/C2=[N+]3C(=C(c4ccc(NC(=O)CCl)cc4)c4cccn4[B-]3(F)F)C(C)=C2)cc1 [BDNCA-46]	0.10	566 nm	42,563	598	32					
C=CCOc1ccc(/C=C/C2=[N+]3C(=C(c4ccc(NC(=O)CCl)cc4)c4cccn4[B-]3(F)F)C(C)=C2)cc1 [BDNCA-48]	0.07	566 nm	44,211	597	31					
CCOC(OCC)c1ccc(/C=C/C2=[N+]3C(=C(c4ccc(NC(=O)CCl)cc4)c4cccn4[B-]3(F)F)C(C)=C2)cc1 [BDNCA-49]	0.03	564 nm	20,046	581	17					
Cc1cc(/C=C/c2ccc(OCc3ccc(Br)cc3)cc2)n2c1C(c1ccc(NC(=O)CCl)cc1)=C1C=CC=[N+]1[B-]2(F)F [BDNCA-52]	0.05	556 nm	36,247	580	24					
CCOc1ccc(/C=C/C2=[N+]3C(=C(c4ccc(NC(=O)CCl)cc4)c4cccn4[B-]3(F)F)C(C)=C2)cc1OCC [BDNCA-53]	0.06	570 nm	31,579	621	51					
COc1ccc(Br)cc1/C=C/c1cc(C)c2n1[B-](F)(F)[N+]1=CC=CC1=C2c1ccc(NC(=O)CCl)cc1 [BDNCA-54]	0.07	562 nm	38,169	581	19					
CC1=CC(/C=C/c2cc(Cl)cc(Cl)c2O)=[N+]2C1=C(c1ccc(NC(=O)CCl)cc1)c1cccn1[B-]2(F)F [BDNCA-57]	0.02	561 nm	23,066	577	16					
COc1ccc2ccccc2c1/C=C/C1=[N+]2C(=C(c3ccc(NC(=O)CCl)cc3)c3cccn3[B-]2(F)F)C(C)=C1 [BDNCA-61]	0.08	581 nm	33,776	627	46					
COc1ccc(/C=C/C2=[N+]3C(=C(c4ccc(NC(=O)CCl)cc4)c4cccn4[B-]3(F)F)C(C)=C2)cc1OC [BDNCA-62]	0.08	570 nm	38,169	618	48					
CCOc1ccc(/C=C/C2=[N+]3C(=C(c4ccc(NC(=O)CCl)cc4)c4cccn4[B-]3(F)F)C(C)=C2)cc1OC [BDNCA-63]	0.07	572 nm	35,149	623	51					
CC1=CC(/C=C/c2ccc(-c3ccccc3)s2)=[N+]2C1=C(c1ccc(NC(=O)CCl)cc1)c1cccn1[B-]2(F)F [BDNCA-65]	0.04	593 nm	30,755	630	37					
CC1=CC(/C=C/c2c(C)c(C)c(C)c(C)c2C)=[N+]2C1=C(c1ccc(NC(=O)CCl)cc1)c1cccn1[B-]2(F)F [BDNCA-67]	0.12	542 nm	36,522	582	40					
CC1=CC(/C=C/c2ccc(OC(F)(F)F)cc2)=[N+]2C1=C(c1ccc(NC(=O)CCl)cc1)c1cccn1[B-]2(F)F [BDNCA-68]	0.05	553 nm	27,735	573	20					
CC1=CC(/C=C/c2ccc(/C=C/c3ccccc3)cc2)=[N+]2C1=C(c1ccc(NC(=O)CCl)cc1)c1cccn1[B-]2(F)F [BDNCA-69]	0.09	577 nm	40,641	610	33					
COc1ccc2c(OC)ccc(/C=C/C3=[N+]4C(=C(c5ccc(NC(=O)CCl)cc5)c5cccn5[B-]4(F)F)C(C)=C3)c2c1 [BDNCA-70]	0.04	587 nm	29,931	677	90					

— US9423396B2, “Bodipy structure fluorescence probes for diverse biological applications” (National University of Singapore, priority 2011, dated 2016)
